# Assays:
# Format in all cases: in vivo, human
# [1] = system: HCMV; assay: phase I/II clinical trial of tocilizumab added to standard GVHD prophylaxis: HCMV reactivation vs historical cohort; settings: at risk BMT recipients; compared to non-randomized similarly transplanted historical cohort
# From the text: FIGS. 9A through 9C. IL-6 inhibition with tocilizumab is associated with low rates of significant CMV reactivation relative to historical controls. Human CMV (HCMV) viremia over time after bone marrow transplantation (BMT) in patients from (FIG. 9A) a phase I/II clinical trial of the addition of tocilizumab to standard graft versus host disease (GVHD) prophylaxis (left) or (FIG. 9B) a contemporaneous historical control cohort (right). FIG. 9C. Depiction of CMV reactivation > 600 versus < 600 copies/µL of plasma in the two patient cohorts.
# (§1) Patients. Patients were enrolled in reported phase I/II (ACTRN12612000726853) or phase III (ACTRN12614000266662) clinical trials. The studies were approved by the Royal Brisbane and Womens Hospital institutional human ethics committee and all patients provided signed informed consent.
# HCMV monitoring. CMV viral load was monitored using the COBAS® Amplicor CMV Monitor test (Roche Diagnostics, Basel, Switzerland) as previously described (Tey SK, Kennedy GA, Cromer D, Davenport MP, Walker S, Jones LI, et al. Clinical assessment of anti-viral CD8+ T cell immune monitoring using QuantiFERON-CMV® assay to identify high risk allogeneic hematopoietic stem cell transplant patients with CMV infection complications. PloS one. 2013, 8(10), e74744). […]
# [2] = system: CD19+ B cells; assay: B cell subsets and B cell counts in peripheral blood after clinical BMT
# Description: (§2) FIGS. 7A through 7G. […] Patients included for the evaluation of human CMV (HCMV) reactivation (as in FIG. 6) were analyzed for HCMV specific T cells and other immune subsets. A total of 50 PBMC samples at day + 60 after bone marrow transplantation (BMT) were identified based on availability of HCMV tetramers and peptides. FIG. 7A. Frequency of HCMV tetramer positive CD8^+ T cells in patients with or without HCMV reactivation. FIG. 7B. Frequency of cytokine (IFNy^+TNF^+) producing CD8^+ T cells following HCMV peptide stimulation in patients with or without HCMV reactivation. FIG. 7C. Frequency of HCMV tetramer positive CD8^+ T cells in patients receiving tocilizumab (TCZ) (n = 21) or placebo control (Ctrl) (n = 29). FIG. 7D. Frequency of cytokine (IFNv^+TNF^+) producing CD8^+ T cells in patients receiving TCZ or placebo. FIG. 7E. Memory phenotype for CD4^+ T cells in patients receiving TCZ or placebo. FIG. 7F. Memory phenotype for CD8^+ T cells in patients receiving TCZ or placebo. FIG. 7G. Proportions of naive B cells, mature B cells and plasmablasts in a subset of the above cohort (n = 19 for control and 17 for TCZ groups respectively). *P < 0.05.
# FIGS. 12A through 12B. The effects of IL-6 inhibition with tocilizumab (TCZ) on B cell recovery following clinical BMT. FIG. 12A. B cell counts in peripheral blood in at-risk patients at day + 30 and + 60 after BMT. FIG. 12B. B cell counts in peripheral blood at day + 60 after bone marrow transplantation (BMT), classified into 4 groups based on the TCZ administration and the presence of acute graft versus host disease (aGVHD).
# Furthermore, there was no difference in the memory phenotypes of CD4^+ and CD8^+ T cells between placebo and TCZ treated patients (FIGS. 7E - 7F). The inventors also analyzed CD19^+ B cells in available samples (n = 19 for Ctrl and n = 17 for TCZ).
# [3] = system: HCMV specific T cells; assay: HCMV-specific CD8+ T cells and T cell memory phenotype in PBMC at day +60 after BMT (flow cytometry)
# Description: as §2
# Next the effect of IL-6 inhibition was investigated on donor T and B cell responses after BMT. Firstly, HCMV-specific CD8^+ T cells defined by HCMV-tetramer staining or cytokine production (IFNγ and/or TNF) were analyzed following HCMV peptide stimulation in conjunction with markers of T cell memory (CD45RA and CCR7). The inventors identified 50 PBMC samples at day + 60 after BMT based on availability of HCMV tetramers (and/or peptides). […] Within the subset of patients with HCMV reactivation, HCMV tetramer^+ cells were present at a lower frequency in patients with higher HCMV viremia (FIG. 7A right).
# [4] = system: MCP-1; assay: plasma MCP-1 in phase III BMT patients; settings: day 60 after BMT
# From the text: (§3) FIGS. 11A through 11D. IL-6 inhibition with tocilizumab (TCZ) attenuates human CMV (HCMV) viremia after clinical BMT. FIG. 11A. Kinetics of HCMV viremia over time for placebo control versus TCZ groups. FIG. 11B (left). The number of PCR positive events of HCMV viremia plotted in (A) and depicted in the two patient cohorts. FIG. 11B (right). Distribution of HCMV reactivation in the patient cohorts receiving volunteer unrelated donor (VUD) grafts. FIG. 11C. Plasma concentration of MCP-1 at day + 60 after bone marrow transplantation (BMT) in patients was quantified and shown in relation to HCMV reactivation (≥ 600 copies/µL) and TCZ treatment. FIG. 11D. Pair-wise comparison of MCP-1 from day + 30 to + 60 in patients without (left) or with (right) significant CMV reactivation (≥ 600 copies/µL) in the placebo group. *P < 0.05; ****P < 0.0001.
# Flow cytometry. Antibody stained single-cell suspensions were analyzed on an LSR Fortessa™ cytometer in Australia or a FACSymphony™ A3 in Seattle USA (Becton Dickinson) and data are processed using FlowJo version 10 (Tree Star). Cytokines levels in the plasma were determined with the BD Cytometric Bead Array system (BD Biosciences).
# Furthermore, high level HCMV reactivation (≥ 600 copies/ul) was associated with a greater increase in MCP-1 between day + 30 and + 60 than seen in patients with low level reactivation (FIG. 11D). […]
# [5] = system: HCMV; assay: phase III randomized placebo-controlled trial: HCMV viremia and cumulative incidence of HCMV reactivation after allogenic BMT
# From the text: FIGS. 6A through 6D. IL-6 inhibition with tocilizumab reduces human CMV (HCMV) reactivation in clinical allogenic bone marrow transplantation (BMT) recipients. Participants of a phase 3 clinical trial who were enrolled at Royal Brisbane and Women’s Hospital and were at-risk of HCMV reactivation were included for analysis (n = 85). These patients were either seropositive for HCMV (R^+) or received grafts from seropositive donors (D^+). FIGS. 6A to 6C. Cumulative incidence of any detectable HCMV reactivation after BMT in at-risk patients. Solid lines represent the tocilizumab (TCZ) group and broken lines represent the placebo control group. FIG. 6A. HCMV reactivation in the total cohort (left) or the subset of patients with grade 0 - I acute graft versus host disease (aGVHD) (right). FIG. 6B. HCMV reactivation in all recipients of volunteer unrelated donor (VUD) grafts (left) or the subset of patients with grade 0 - I aGVHD (right). FIG. 6C. HCMV reactivation in all recipients of matched sibling donor (MSD) grafts (left) or those with grade 0 - I aGVHD (right). FIG. 6D. Distribution of HCMV serostatus (D^+R^-, D^+R^+ and D^-R^+) in recipients of MSD or VUD grafts.
# as §3, §1
# HCMV monitoring. CMV viral load was monitored using the COBAS® Amplicor CMV Monitor test (Roche Diagnostics, Basel, Switzerland) as previously described (Tey SK, Kennedy GA, Cromer D, Davenport MP, Walker S, Jones LI, et al. Clinical assessment of anti-viral CD8+ T cell immune monitoring using QuantiFERON-CMV® assay to identify high risk allogeneic hematopoietic stem cell transplant patients with CMV infection complications. PloS one. 2013, 8(10), e74744). Cumulative incidence of any detectable HCMV viremia is plotted up to day + 100 after BMT and HCMV is censored at day + 100 of BMT or the time of death if this occurred prior to day 100.
# Statistics. Results are presented as median ± interquartile range and the Mann-Whitney U test was used for comparisons. Wilcoxon test is conducted for pair-wise comparisons. Ordinary least-squares method was used in the linear or semi-log regression analysis. A two-sided P value of 0.05 was considered statistically significant. […]
# [6] = system: HCMV-specific IgG; assay: HCMV-specific IgG titers in plasma at day +30 after BMT (chemiluminescence, Diasorin Liaison XL)
# From the text: FIGS. 8A through 8C. IL-6 inhibition with tocilizumab is associated with the maintenance of human CMV (HCMV)-specific IgG. FIGS. 8A to 8C. Quantification of HCMV-specific IgG titers in plasma at day + 30 after bone marrow transplantation (BMT). FIG. 8A. D^-R^+ and D^+R^+ patients are classified into 3 groups based on HCMV reactivation (reactivation before day + 35, reactivation between day + 35 and + 100, no reactivation by day + 100) and respective HCMV-specific IgG titers are shown. FIG. 8B. HCMV-specific IgG in D^-R^+ and D^+R^+ patients are shown for tocilizumab (TCZ) versus placebo control (Ctrl) groups (left). The analysis for the subset of unrelated transplants is shown right. FIG. 8C. Titers of HCMV-specific IgG in D^+R^- patients are shown for TCZ versus placebo control groups. Dotted lines indicate detection limit of the HCMV-IgG assay (5 -180 U/mL).
# Total and HCMV-specific IgG. The concentration of total IgG was determined with Enzyme-linked immunosorbent assay (Invitrogen) as per the manufacturer’s protocol. Quantification of HCMV IgG was conducted by Sullivan Nicolaides Pathology Queensland (Bowen Hills, QLD, Australia) using a chemiluminescence method on the Diasorin Liaison® XL platform. This semiquantitative method allows for a detection range of 5 - 180 Unit/mL.
# Given the lack of effects of IL-6 inhibition on T and B cells, HCMV-specific IgG was quantified after BMT. […]
substance,measurement,setting,value
tocilizumab,rates of significant HCMV reactivation requiring preemptive therapy (> 600 copies/µL),[1],low rates
same,absolute numbers of B cells in blood,"[2]; day +30 or +60, presence or absence of TCZ",not different
same,B cell suppression in patients with grade II-IV acute GVHD,[2]; day +60,did appear to mitigate
same,"frequencies of IgD+CD27- naïve B cells, IgD-CD27+ mature B cells or CD38hi plasmablasts","[2]; n = 19 Ctrl, n = 17 TCZ",did not impact
same,frequency of cytokine-producing CD8+ T cells,"[3]; day +60 PBMC, HCMV peptide stimulation, TCZ vs placebo",did not have any significant effect
same,frequency of HCMV-tetramer+CD8+ T cells,"[3]; day +60 PBMC, TCZ (n = 21) vs placebo (n = 29)",did not have any significant effect
same,memory phenotypes of CD4+ and CD8+ T cells,[3]; placebo vs TCZ treated patients,no difference
same,increase of plasma MCP-1 with HCMV reactivation (≥ 600 copies/ul),[4],not observed
same,benefit from treatment by serostatus,[5]; HCMV seropositive patients receiving seronegative grafts (D-R+),maximum benefit
same,HCMV viremia,"[5]; TCZ vs placebo, at-risk patients (n = 85)",a trend towards lower HCMV viremia
same,"HCMV reactivation, TCZ versus placebo",[5]; recipients of matched sibling donor grafts,no difference
same,protection on HCMV reactivation,"[5]; recipients of volunteer unrelated donor (VUD) grafts, independent of acute GVHD",most profound
same,cumulative incidence of HCMV reactivation,"[5]; total cohort, TCZ vs placebo, independent of acute GVHD",a trend towards lower cumulative incidence
same,effect on HCMV-IgG titers by graft type,"[6]; day +30 plasma, VUD subset",predominantly observed in recipients of VUD grafts
same,HCMV-IgG in day +30 plasma,"[6]; seropositive recipients (D-R+ and D+R+), TCZ vs placebo",higher

# Source: patent publication US20230151101A1, “METHODS AND COMPOSITIONS TO ENHANCE HUMORAL IMMUNITY TO REDUCE CYTOMEGALOVIRUS INFECTION AND REACTIVATION BY IL-6 INHIBITION” (Fred Hutchinson Cancer Center, priority 2021, published 2023)
